From paper PMC6620326, “Structural characterization of life-extending Caenorhabditis elegans Lipid Binding Protein 8” (Scientific Reports, 2019)

Tests used:
LBP-8 [1] = target: T1, LBP-8 (Caenorhabditis elegans, UniProt O02324); experiment: […],8-ANS fluorescence displacement; assay type: binding; details: PBS pH 8.0, 37 °C, 250 nM protein, 800 nM 1,8-ANS, 1% ethanol; refolded delipidated protein; competitive with 1,8-ANS
T1 construct: full-length residues 1-137, pMCSG7 His6-TEV, E. coli BL21(DE3); His tag cleaved by TEV
T1 sequence (O02324 1-137): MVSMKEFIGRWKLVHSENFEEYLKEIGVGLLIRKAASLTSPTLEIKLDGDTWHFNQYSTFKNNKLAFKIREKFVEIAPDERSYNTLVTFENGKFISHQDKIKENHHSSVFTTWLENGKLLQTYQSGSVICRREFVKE

LBP-8 [2] = target: T1, LBP-8; experiment: differential scanning fluorimetry, SYPRO orange; assay type: binding; details: 20 µM ligand, 7 µM refolded protein, 1% ethanol; destabilising shift

| decrease in Tm vs apo (LBP-8 [2]) | Structure (SMILES) | Ki (LBP-8 [1]) |
| --- | --- | --- |
| – | CCCCCCCC/C=C\CCCCCCCC(=O)NCCO [OEA, oleoylethanolamide] | oleic acid and OEA, and both had very similar Ki’s |
| ~ 4 °C | CCCCCCCC/C=C\CCCCCCCC(=O)O [OA, oleic acid] | oleic acid and OEA, and both had very similar Ki’s |
